# Measured values reported in patent US4521339A, “Ansatrienols” (Nisshin Flour Milling Co., Ltd., priority 1981, dated 1985).
# Entries after “also recorded” stand apart in the source; their conditions may differ.
# Assays:
# [1] = system: several types of tumor cells; assay: Growth inhibition of several types of tumor cells; format: cell-based; conditions: statement in words
# [2] = Solubility in solvents; conditions: for Solubility in solvents: organic solvents; for Soluble in (continued line of the solubility entry): organic solvents in which the substance is soluble, continuation line
# [3] = Acute toxicity; conditions: mouse, in vivo, ip
# [4] = system: mouse leukemia P-388; assay: Anti-tumor activity against mouse leukemia P-388 (life span of mice); format: in vivo; conditions: CDF1 mice
# Procedure: To six CDF1 male mice (20±1 g) of one group, 10^6 ascites tumor P-388 cells were transplanted intraperitoneally. The test material was administered first 24 hours and then 120 hours after transplantation. The dose of the test material suspended in gum arabic was 0.2 ml for each time. Increased life span was expressed in terms of % of the life span of the control group (administered with a gum arabic suspension).
# To six CDF1 male mice (20±1 g) of one group, 10^6 ascites tumor P-388 cells were transplanted intraperitoneally. The test material was administered first 24 hours after transplantation of then six times every 24 hours. The dose of the test material suspended in gum arabic was 0.2 ml for each time. Increased life span was expressed in terms of % of the life span of the control group (administered with a gum arabic suspension).
# [5] = system: Penicillium chrysogenum (IAM 7106); assay: Antimicrobial activity (MIC, dilution method); format: cell-based; conditions: IAM7106, 30° C., 72 hours, read-out: MIC (minimum inhibitory concentration)
# Procedure: (§1) The MIC (minimum inhibitory concentration) value of the T-23-I substance was determined by cultivation of a microorganism in a medium containing 1.0% glucose and 0.2% malt extract at 30° C. for 72 hours by a dilution method.
# (§2) The MIC (minimum inhibitory concentration) value of the T-23-II substance was determined by cultivation of a microorganism in a medium containing 1.0% glucose and 0.2% malt extract at 30° C. for 72 hours by a dilution method.
# [6] = system: Saccharomyces rouxii (IFO 0505); assay: Antimicrobial activity (MIC, dilution method); format: cell-based; conditions: Zygosaccharomyces rouxii, IFO0505, 30° C., 72 hours, read-out: MIC (minimum inhibitory concentration)
# Procedure: as §1, §2
# [7] = system: Saccharomyces cerevisiae (IFO 0304); assay: Antimicrobial activity (MIC, dilution method); format: cell-based; conditions: IFO0304, 30° C., 72 hours, read-out: MIC (minimum inhibitory concentration)
# Procedure: as §1, §2
# [8] = system: Aspergillus japonicus (IAM 2016); assay: Antimicrobial activity (MIC, dilution method); format: cell-based; conditions: IAM2016, 30° C., 72 hours, read-out: MIC (minimum inhibitory concentration)
# Procedure: as §1, §2
# [9] = system: Mucor pusillus (IAM 6122); assay: Antimicrobial activity (MIC, dilution method); format: cell-based; conditions: Rhizomucor pusillus, IAM6122, 30° C., 72 hours, read-out: MIC (minimum inhibitory concentration)
# Procedure: as §1, §2
# [10] = system: Candida utilis (IFO 0396); assay: Antimicrobial activity (MIC, dilution method); format: cell-based; conditions: Williopsis jadinii, IFO0396, 30° C., 72 hours, read-out: MIC (minimum inhibitory concentration)
# Procedure: as §1, §2
# [11] = system: L-5178Y lymphoma cells; assay: Anti-tumor activity (in vitro) against L-5178Y lymphoma cells; format: cell-based; conditions: statement in words
# Procedure: The cell growth was observed by a dilution method using an Eagle-NEM medium (Nissui) supplemented with 10% horse serum and 100 mg/l asparagine and cultivated at 37° C. for 120 hours. The T-23-I substance in ethanol solution was added to an assay system.
# The cell growth was observed by a dilution method using an Eagle-NEM medium (Nissui) supplemented with 10% horse serum and 100 mg/l asparagine and cultivated at 37° C. for 120 hours. The T-23-II substance in ethanol solution was added to an assay system.
# [12] = system: mouse sarcoma 180; assay: Anti-tumor activity against mouse sarcoma 180 (life span of mice); format: in vivo; conditions: ICR mice
# Procedure: To six ICR male mice (25±1 g) of one group, 10^6 sarcoma 180 ascites tumor cells were transplanted intraperitoneally. The test material was administered first three hours after transplantation and then four times every 24 hours. The dose of the test material (T-23-II substance) suspended in gum arabic was 0.2 ml for each time. Increased life span was expressed in terms of % of the life span of the control group (administered with a gum arabic suspension).
SMILES,inhibition of the growth of several types of tumor cells [1],Solubility in solvents [2],Soluble in (continued line of the solubility entry) [2],Solubility in water [2],LD50 [3] [mg/kg],MIC [5] [µg/mL],MIC [6] [µg/mL],MIC [7] [µg/mL],MIC [8] [µg/mL],MIC [9] [µg/mL],MIC [10] [µg/mL],inhibition of the growth of L-5178Y lymphoma cells [11],also measured
COC1C=CC=CC=CCC(O)C(C)C(O)C(C)=CCCc2cc(O)cc(c2O)NC(=O)C1 (stereo not shown) [T-23-IV substance],some significant effect to inhibit the growth of several types of tumor cells,"Soluble in chloroform, ethyl acetate, methanol; also recorded: Sparingly soluble in benzene and toluene; also recorded: Insoluble in petroleum ether and water","ethanol, acetone and acetonitrile",Insoluble,~280,–,–,–,–,–,–,–,–
COC1C=CC=CC=CCC(O)C(C)C(O)C(C)=CCCC2=CC(=O)C=C(NC(=O)C1)C2=O (stereo not shown) [T-23-III substance],some significant effect to inhibit the growth of several types of tumor cells,"Soluble in chloroform, ethyl acetate, methanol; also recorded: Sparingly soluble in ethyl ether; also recorded: Insoluble in petroleum ether and water",toluene,Insoluble,~250,–,–,–,–,–,–,–,–
COC1C=CC=CC=CCC(OC(=O)[C@@H](C)NC(=O)C2CCCCC2)C(C)C(O)C(C)=CCCc2cc(O)cc(c2O)NC(=O)C1 (stereo partly shown) [T-23-II substance],some significant effect to inhibit the growth of several types of tumor cells,"soluble in higher alcohols, acetone, chloroform, benzene and ethylacetate; also recorded: Soluble in chloroform, methanol, ethanol; also recorded: Sparingly soluble in benzene and ether; also recorded: Insoluble in water, petroleum ether and hexane",acetone and ethyl acetate,Insoluble in water,85.5,12.5,4,4,12.5,12.5,4,effective to inhibit the growth of L-5178Y lymphoma cells,Increased life span T/C ([4]; 1.25 mg/kg/day × 6 times): 130.0%; Increased life span T/C ([4]; 2.5 mg/kg/day × 6 times): 109.9%; Increased life span T/C ([4]; 5 mg/kg/day × 6 times): 127.1%; Increased life span T/C ([4]; 10 mg/kg/day × 6 times): 120.2%; Increased life span T/C ([4]; 20 mg/kg/day × 6 times): 135.7%; Increased life span T/C ([12]; 0.7 mg/kg/day × 4 times): 109.6%; Increased life span T/C ([12]; 2.2 mg/kg/day × 4 times): 95.6%; Increased life span T/C ([12]; 6.6 mg/kg/day × 4 times): 115.0%; Increased life span T/C ([12]; 20 mg/kg/day × 4 times): 138.7%
COC1C=CC=CC=CCC(OC(=O)[C@@H](C)NC(=O)C2CCCCC2)C(C)C(O)C(C)=CCCC2=CC(=O)C=C(NC(=O)C1)C2=O (stereo partly shown) [T-23-I substance],some significant effect to inhibit the growth of several types of tumor cells,"soluble in higher alcohols, acetone, chloroform, benzene and ethylacetate; also recorded: Soluble in methanol, ethanol, acetone; also recorded: Sparingly soluble in benzene and ether; also recorded: Insoluble in water, petroleum ether and hexane",chloroform and ethyl acetate,Insoluble in water,55.9,8,4,4,12.5,12.5,4,effective to inhibit the growth of L-5178Y lymphoma cells,Increased life span T/C ([4]; 0.75 mg/kg/day × 2 times): 105.7%; Increased life span T/C ([4]; 1.5 mg/kg/day × 2 times): 107.3%; Increased life span T/C ([4]; 3 mg/kg/day × 2 times): 105.7%; Increased life span T/C ([4]; 6 mg/kg/day × 2 times): 120.2%; Increased life span T/C ([4]; 12 mg/kg/day × 2 times): 123.3%; Increased life span T/C ([4]; 24 mg/kg/day × 2 times): 56.0%
